In patent US5348956A, “Substituted cyclopropylamino-1,3,5-triazines” (UCB S.A., priority 1991, dated 1994):
Like-named read-outs stand apart in the source and are kept apart here.

Columns and labels:
[1] = test system: anaphylactic release of histamine, guinea-pig lung sections; assay: potentiation of the inhibition of anaphylactic histamine release by isoprenaline; format: cell-based, Dunkin-Hartley guinea-pigs; conditions: with isoprenaline 10^-7 mole per liter
toxicity, Irwin's test = format: in vivo; conditions: i.p.; death of two animals out of three within 48 hours
Procedure: Progressive doses of the compound to be tested are administered intraperitoneally to groups of three mice until the lethal dose is reached (dose which causes the death of two animals out of three within 48 hours).

[2] = test system: bronchospasm induced by serotonin; assay: bronchospasmolytic activity (Konzett and Roessler), bronchospasm induced by serotonin; format: in vivo, Dunkin-Hartley guinea-pig; conditions: Cavia porcellus; intravenous; serotonin-induced bronchospasm; read-out: Doses (ID50), Serotonin
Outline: (§1)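 Anesthetized (urethane), curarized, ventilated Dunkin-Hartley guinea-pigs with endotracheal pressure recorded after histamine, serotonin or acetylcholine challenge. Compound given i.v. 2 min before spasmogen, then in 3–4 increasing cumulative doses at 15-min intervals; six animals per compound and spasmogen.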

[3] = test system: longitudinal muscles of the ileum contracted by histamine; assay: potentiation of the myorelaxing effect of isoprenaline on the ileum; format: cell-based, Dunkin-Hartley guinea-pigs; conditions: with isoprenaline 10^-7 mole/l; histamine 3.2 μmoles/l
Outline: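 Isolated ileal longitudinal muscle contracted by repeated histamine injections; test compound injected after wash, and the next histamine contraction compared with the mean of three preceding control contractions to give % inhibition. Potentiation cycle: % inhibition by compound alone at a given dose, then with isoprenaline co-injected, repeated per dose.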

[4] = test system: bronchospasm induced by acetylcholine; assay: bronchospasmolytic activity (Konzett and Roessler), bronchospasm induced by acetylcholine; format: in vivo, Dunkin-Hartley guinea-pig; conditions: Cavia porcellus; intravenous; acetylcholine-induced bronchospasm; read-out: Doses (ID50), Acetylcholine
Outline: as §1

[5] = test system: plantar edema induced by immune complexes; assay: "reverse passive Arthus" (RPA) test, anti-inflammatory and anti-edema activity; format: in vivo, Sprague-Dawley rat; conditions: Rattus norvegicus, intravenous
Outline: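 Rats received subplantar anti-ovalbumin serum in the right hind paw plus i.v. ovalbumin 1 ml/kg (25 mg/ml). Compound was given i.v. 30 s before induction, at ≥3 doses, 6 rats/dose. Paw volume was measured by plethysmometry at 3 and 5 h, and ID30 (μmole/kg) is the dose reducing edema 30% versus controls.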

[6] = test system: anaphylactic release of histamine, guinea-pig lung sections; assay: inhibition of the anaphylactic release of histamine (proper effect); format: cell-based, Dunkin-Hartley guinea-pigs; conditions: Cavia porcellus, in vitro, read-out: Minimum inhibitory dose (MID)
[7] = test system: bronchospasm induced by histamine; assay: bronchospasmolytic activity (Konzett and Roessler), bronchospasm induced by histamine; format: in vivo, Dunkin-Hartley guinea-pig; conditions: Cavia porcellus; intravenous; histamine-induced bronchospasm; read-out: Doses (ID50), Histamine
Outline: as §1

[8] = test system: amnesia induced by scopolamine; assay: multiple-trial passive avoidance: mnemic retention, amnesia induced by scopolamine
Procedure: To this end, the method of multiple-trial passive avoidance has been used. […] The test is carried out on male Sprague-Dawley rats (160-200 g). which are kept in standard cages throughout the experiment. The apparatus used is a transparent square cage with 35 cm sides and 25 cm high, fitted with a grid floor which can be electrified. A rubber insulating mat (10×17 cm) is placed on the floor in one of the corners of the cage.
Each animal is subjected to four tests at times 0, 4, 24 and 28 hours. In the first test (time 0), the animal is placed on the rubber mat and the time which it takes to decide to leave this position to explore the cage is recorded. After 20 seconds of exploration, the rat receives an electric shock (3 seconds duration) in the paws, causing an escape reaction. The rat is immediately removed from the apparatus and replaced in its original cage. In the course of the three subsequent tests (times: 4, 24 and 28 hours), the animal is replaced on the rubber mat and the time taken to leave this position is recorded. As soon as the four paws of the animal rest on the grid, it receives an electric shock and is removed immediately from the apparatus.
At the start of the experiment, the rats are divided into 4 homogeneous groups of 15 animals. Thirty minutes before each test, each group of animals is subjected to a predetermined treatment:
Groups 1 and 2 are used in the first experiment (learning) and groups 3 and 4 in the second experiment (mnemic retention).
The differences found are analyzed statistically by the Mann-Whitney method.

[9] = 3 hours after induction of the Arthus reaction, read-out: Dose (ID30), 3 hours
[10] = 5 hours after induction of the Arthus reaction, read-out: Dose (ID30), 5 hours

Row | SMILES | Minimum potentiating dose (MPD) [1] [µmol/L] | Lethal dose (toxicity, Irwin's test) [mg/kg] | ED50 [2] [µmol/kg] | Minimum potentiating dose (MPD) [3] [µmol/L] | ED50 [4] [µmol/kg] | ED30 [5, 9] [µmol/kg] | ED30 [5, 10] [µmol/kg] | minimal effective concentration [6] [µM] | ED50 [7] [µmol/kg] | also measured
1 | CCCc1nc(NC2CC2)nc(N2CCOCC2)n1 [Compound 1, 2-Cyclopropylamino-4-morpholino-6-n-propyl-1,3,5-triazine] | 0.32 | 898 | 0.01 | 0.032 | 0.1 | 2 | 2 | 0.1 | 0.01 | Period of remaining on the mat, group 4 ([8]; 4 hours, 3.0 mg/kg i.p. + 0.5 mg scopolamine): 42.8 s; Period of remaining on the mat, group 4 ([8]; 24 hours, 3.0 mg/kg i.p. + 0.5 mg scopolamine): 77.2 s; Period of remaining on the mat, group 4 ([8]; 28 hours, 3.0 mg/kg i.p. + 0.5 mg scopolamine): 114.6 s; Period of remaining on the mat, group 4 ([8]; time 0, 3.0 mg/kg i.p. + 0.5 mg scopolamine): 19.2 s
2 | COC1CN(c2nc(NC3CC3)nc(C3CC3)n2)C1 [Compound 14] | 0.32 | 156.8 | 0.2 | 1.0 | 0.5 | 16 | 12 | 1 | 0.09 | Period of remaining on the mat, group 4 ([8]; 4 hours, 2.6 mg/kg i.p. + 0.5 mg scopolamine): 36.3 s; Period of remaining on the mat, group 4 ([8]; 24 hours, 2.6 mg/kg i.p. + 0.5 mg scopolamine): 73.9 s; Period of remaining on the mat, group 4 ([8]; 28 hours, 2.6 mg/kg i.p. + 0.5 mg scopolamine): 139.1 s; Period of remaining on the mat, group 4 ([8]; time 0, 2.6 mg/kg i.p. + 0.5 mg scopolamine): 11.7 s
3 | C1CC1Nc1nc(C2CC2)nc(N2CC3CCC(C2)O3)n1 [Compound 16] | 0.032 | 194 | 0.009 | 0.032 | 0.05 | 1.5 | 2 | 0.1 | 0.009 | Period of remaining on the mat, group 4 ([8]; 4 hours, 3.25 mg/kg i.p. + 0.5 mg scopolamine): 35.1 s; Period of remaining on the mat, group 4 ([8]; 24 hours, 3.25 mg/kg i.p. + 0.5 mg scopolamine): 118.5 s; Period of remaining on the mat, group 4 ([8]; 28 hours, 3.25 mg/kg i.p. + 0.5 mg scopolamine): 101.1 s; Period of remaining on the mat, group 4 ([8]; time 0, 3.25 mg/kg i.p. + 0.5 mg scopolamine): 11.3 s
